The target of this assay is Beta-secretase 1 (Homo sapiens, UniProt P56817). Kind of assay: Inhibition of BACE1 by fluorescence-based assay.
Sequence of Beta-secretase 1 (P56817 whole entry): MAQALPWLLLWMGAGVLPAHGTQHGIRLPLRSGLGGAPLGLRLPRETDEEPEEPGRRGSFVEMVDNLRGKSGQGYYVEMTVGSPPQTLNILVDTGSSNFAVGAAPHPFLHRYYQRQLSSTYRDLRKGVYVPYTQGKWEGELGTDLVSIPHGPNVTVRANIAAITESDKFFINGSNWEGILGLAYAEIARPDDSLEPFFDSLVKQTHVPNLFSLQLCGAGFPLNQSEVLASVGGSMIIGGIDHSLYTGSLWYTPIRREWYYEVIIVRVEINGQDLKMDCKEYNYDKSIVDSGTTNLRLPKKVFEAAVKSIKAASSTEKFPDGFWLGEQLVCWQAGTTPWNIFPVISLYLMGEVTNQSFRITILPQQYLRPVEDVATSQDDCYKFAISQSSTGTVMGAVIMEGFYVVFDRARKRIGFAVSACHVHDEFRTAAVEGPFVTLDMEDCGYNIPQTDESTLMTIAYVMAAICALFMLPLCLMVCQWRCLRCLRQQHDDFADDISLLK
By IC50 is commonly meant the concentration that inhibits the measured activity by half. High values mean weaker potency in that assay, low ones greater potency in that assay. Molecule `O=C(c1ccccc1)N(CC(O)Cn1c2ccccc2c2ccccc21)C1CCCCC1` (centres undefined) returned an IC50 above 10 µM.
For the molecule `O=C(c1ccccc1)N(CC(O)Cn1c2ccccc2c2ccccc21)c1ccc(C(F)(F)F)cc1` (centres undefined), the IC50 is above 10 µM.
For the molecule `OC(CNc1cccc2ccccc12)Cn1c2ccccc2c2ccccc21` (centres undefined), the IC50 came out at 2.99 µM.
`Cc1ccc(CN(CC(O)Cn2c3ccccc3c3ccccc32)C(=O)c2ccccc2)cc1` (centres undefined) had a half-maximal inhibitory concentration (IC50) above 10 µM.
As for `O=C(c1ccccc1)N(CC(O)Cn1c2ccccc2c2ccccc21)c1ccc([N+](=O)[O-])cc1` (centres undefined), the IC50 is above 10 µM.
As to `O=C(c1ccccc1)N(CC(O)Cn1c2ccccc2c2ccccc21)c1ccccc1` (centres undefined), the IC50 is above 10 µM.
The same measure for `O=C(c1ccc(Cl)c(Cl)c1)N(Cc1ccccc1)CC(O)Cn1c2ccccc2c2ccccc21` (centres undefined): above 10 µM; for `O=C(c1ccccc1)N(CC(O)Cn1c2ccccc2c2ccccc21)c1ccc(Cl)cc1` (centres undefined): above 10 µM.
For the molecule `O=C(c1ccccc1)N(CCc1ccccc1)CC(O)Cn1c2ccccc2c2ccccc21` (centres undefined), 4.8 µM corresponded to half-maximal inhibition (IC50).
In turn, `O=C(c1ccc(Cl)cc1)N(Cc1ccccc1)CC(O)Cn1c2ccccc2c2ccccc21` (centres undefined) yielded an IC50 above 10 µM.
The same measure for `O=C(c1ccc(Cl)c(Cl)c1)N(CC(O)Cn1c2ccccc2c2ccccc21)c1ccccc1` (centres undefined): 2.5 µM.
`COc1ccc(C(=O)N(CC(O)Cn2c3ccccc3c3ccccc32)c2ccccc2)cc1` (centres undefined) displayed an IC50 of 3.8 µM.
Take `O=C(c1ccccc1)N(CC(O)Cn1c2ccccc2c2ccccc21)c1ccc(F)cc1` (centres undefined): the concentration for half-maximal inhibition (IC50) was above 10 µM.
On to `COc1ccc(CN(CC(O)Cn2c3ccccc3c3ccccc32)C(=O)c2ccccc2)cc1` (centres undefined), for which the IC50 is above 10 µM.
`Cc1ccc(N(CC(O)Cn2c3ccccc3c3ccccc32)C(=O)c2ccccc2)cc1` (centres undefined): the 50% inhibitory concentration (IC50) was above 10 µM.
In the case of `COc1ccc(C(=O)N(Cc2ccccc2)CC(O)Cn2c3ccccc3c3ccccc32)cc1` (centres undefined), the IC50 was above 10 µM.
For `O=C(c1ccc(Cl)cc1)N(CC(O)Cn1c2ccccc2c2ccccc21)c1ccccc1` (centres undefined), the concentration for half-maximal inhibition (IC50) was 4.7 µM.
For `O=C(c1ccccc1)N(Cc1ccccc1)CC(O)Cn1c2ccccc2c2ccccc21` (centres undefined) the value was above 10 µM.
For `O=C(c1ccccc1)N(Cc1ccc(Cl)cc1)CC(O)Cn1c2ccccc2c2ccccc21` (centres undefined) the value was above 10 µM.

Source of the values: ChEMBL document CHEMBL1909562, “Carbazole-containing arylcarboxamides as BACE1 inhibitors” (Bioorg Med Chem Lett, 2011).
